Measured values from article PMC9311798, “A Novel Class of Potent Anti-Tyrosinase Compounds with Antioxidant Activity, 2-(Substituted phenyl)-5-(trifluoromethyl)benzo[d]thiazoles: In Vitro and In Silico Insights” (Antioxidants, 2022).

Experiment: DPPH radical scavenging activity assay
Settings: compound 1.0 mM, 30 min in the dark, 517 nm
Method: The DPPH (2,2-diphenyl-1-picrylhydrazyl) scavenging activities of synthesized compounds 1a–1p were investigated as previously described, with minor modifications. A dimethyl sulfoxide solution (20 µL) containing 10 mM of each compound was mixed with DPPH methanol solution (0.2 mM, 180 µL) in the wells of a 96-well plate, and placed in the dark for 30 min at room temperature. At 517 nm, optical densities were measured using a microplate reader (VersaMax^TM, Molecular Devices, Sunnyvale, CA, USA). The DPPH radical scavenging ability of the 2-arylbenzothiazole derivatives was compared with that of L-ascorbic acid, the positive control. All experiments were performed independently in triplicate.

Compound: Oc1ccc(-c2nc3cc(C(F)(F)F)ccc3s2)c(O)c1 [Compound 1b, 4-(5-(Trifluoromethyl)benzo[d]thiazol-2-yl)benzene-1,3-diol]
- DPPH radical scavenging activity: moderate DPPH radical scavenging efficacy
